From ChEMBL document CHEMBL4422622, “Identification of Mineralocorticoid Receptor Modulators with Low Impact on Electrolyte Homeostasis but Maintained Organ Protection” (J Med Chem, 2019)

Tests used:
[1] = Octanol-water partitioning co-efficient, log D of the compound at pH 7.4 by LC/MS/MS analysis; format: physicochemical
[2] = Apparent permeability in human Caco2 cells at 10 uM after 45 to 120 mins by LC/MS/MS analysis; format: ADME, cell-based; details: Caco-2
[3] = Intrinsic clearance in human hepatocytes assessed per million cells at 1 uM measured up to 120 mins in presence of NADPH by LC-MS/MS analysis; format: ADME, cell-based, Hepatocyte; details: read-out: CLH
Glucocorticoid receptor = molecular target: T1, Glucocorticoid receptor (Homo sapiens, UniProt P04150)
T1 sequence (P04150 whole entry): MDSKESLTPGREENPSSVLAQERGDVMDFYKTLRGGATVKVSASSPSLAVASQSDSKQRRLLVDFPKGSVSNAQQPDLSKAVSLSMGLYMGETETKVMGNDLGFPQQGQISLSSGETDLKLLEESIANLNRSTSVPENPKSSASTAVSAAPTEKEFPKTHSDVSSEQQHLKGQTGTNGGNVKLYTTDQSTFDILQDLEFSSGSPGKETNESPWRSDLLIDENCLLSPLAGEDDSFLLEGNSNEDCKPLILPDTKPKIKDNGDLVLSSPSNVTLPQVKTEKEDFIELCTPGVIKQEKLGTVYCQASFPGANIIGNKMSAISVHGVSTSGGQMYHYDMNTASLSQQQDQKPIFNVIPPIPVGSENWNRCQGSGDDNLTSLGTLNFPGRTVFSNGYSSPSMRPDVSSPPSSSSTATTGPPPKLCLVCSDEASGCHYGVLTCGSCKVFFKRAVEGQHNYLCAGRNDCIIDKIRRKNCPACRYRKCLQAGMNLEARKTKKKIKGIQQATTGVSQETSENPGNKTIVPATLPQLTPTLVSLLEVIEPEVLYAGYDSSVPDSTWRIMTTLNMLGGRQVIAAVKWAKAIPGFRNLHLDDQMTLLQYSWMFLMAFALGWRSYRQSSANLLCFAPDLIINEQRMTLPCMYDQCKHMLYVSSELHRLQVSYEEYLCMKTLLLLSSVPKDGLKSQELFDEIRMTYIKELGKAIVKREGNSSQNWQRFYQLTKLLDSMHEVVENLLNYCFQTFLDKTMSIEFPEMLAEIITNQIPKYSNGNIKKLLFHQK
Description: Binding affinity to recombinant human GR LBD by fluormone GS red-fluorescence polarization assay

[4] = molecular target: T2, Mineralocorticoid receptor (Homo sapiens, UniProt P08235)
T2 sequence (P08235 whole entry): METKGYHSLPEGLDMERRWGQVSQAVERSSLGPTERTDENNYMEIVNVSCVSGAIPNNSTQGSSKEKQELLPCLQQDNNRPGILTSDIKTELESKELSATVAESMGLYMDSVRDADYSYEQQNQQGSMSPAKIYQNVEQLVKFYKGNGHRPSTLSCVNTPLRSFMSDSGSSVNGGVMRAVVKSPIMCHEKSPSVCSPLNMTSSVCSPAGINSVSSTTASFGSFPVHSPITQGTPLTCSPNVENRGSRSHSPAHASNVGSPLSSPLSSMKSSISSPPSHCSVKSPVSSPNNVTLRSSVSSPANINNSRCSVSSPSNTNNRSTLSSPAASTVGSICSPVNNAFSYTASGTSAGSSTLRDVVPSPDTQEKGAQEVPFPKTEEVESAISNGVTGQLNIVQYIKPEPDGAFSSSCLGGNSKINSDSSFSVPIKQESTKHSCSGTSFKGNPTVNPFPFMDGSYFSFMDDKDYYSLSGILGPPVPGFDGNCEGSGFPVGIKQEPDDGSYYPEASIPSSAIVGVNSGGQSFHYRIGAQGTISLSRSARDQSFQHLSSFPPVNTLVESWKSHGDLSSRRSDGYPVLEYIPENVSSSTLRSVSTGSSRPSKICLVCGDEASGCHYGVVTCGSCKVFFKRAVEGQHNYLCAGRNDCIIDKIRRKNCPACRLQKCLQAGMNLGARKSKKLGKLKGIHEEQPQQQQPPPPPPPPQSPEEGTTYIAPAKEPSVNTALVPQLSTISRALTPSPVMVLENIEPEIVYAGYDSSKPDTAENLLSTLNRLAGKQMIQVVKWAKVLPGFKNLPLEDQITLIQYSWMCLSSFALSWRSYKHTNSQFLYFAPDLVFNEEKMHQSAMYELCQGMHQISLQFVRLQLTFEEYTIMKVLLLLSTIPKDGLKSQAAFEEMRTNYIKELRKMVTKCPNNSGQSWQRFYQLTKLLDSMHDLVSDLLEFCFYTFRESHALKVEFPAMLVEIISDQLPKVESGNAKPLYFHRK
Description: Displacement of [3H]-aldosterone to human mineralocorticoid receptor LBD by radiometric binding assay

[5] = molecular target: T2, Mineralocorticoid receptor; remark: listed apart in the source
Description: Antagonist activity at gal4-fused human mineralocorticoid receptor LBD expressed in UAS-MR-bla HEK293 cells by luciferase reporter gene assay

[6] = Kinetic solubility of compound at pH 7.4 after 24 hrs by shake-flask assay; format: physicochemical; details: buffer, read-out: -log(solubility) (converted)
[7] = Intrinsic clearance in human liver microsomes at 1 uM measured up to 30 mins in presence of NADPH by LC-MS/MS analysis; format: ADME, Microsome; details: read-out: CLH

Compound | logD [1] | Papp at 10 µM [2] [×10⁻⁶ cm/s] | hepatocyte CLint at 1 µM [3] [µL/min/1e6 cells] | Ki (Glucocorticoid receptor) [nM] | Ki [4] [nM] | IC50 [5] [nM] | solubility kinetic at 24 h [6] [µM] | microsomal CLint at 1 µM [7] [µL/min/mg]
NC(=O)C[C@H]1COc2cc(Cl)ccc2N1C(=O)c1ccc2c(c1)NC(=O)CO2 | 1.7 | 5.6 | 1.5 | 31.6 | – | – | – | –
NC(=O)C[C@H]1COCc2cc(F)ccc2N1C(=O)c1ccc2c(c1)NC(=O)CO2 | 0.4 | < 0.6 | < 1 | > 15800 | > 10000 | > 10000 | – | –
CNC(=O)C[C@@H]1COc2cc(F)ccc2N1C(=O)c1ccc2c(c1)NC(=O)CO2 | 1.3 | 6.2 | < 1 | – | – | – | – | –
CNC(=O)C[C@H]1COc2cc(F)c(CC(C)C)cc2N1C(=O)c1ccc2c(c1)NC(=O)CO2 | 3.1 | – | 13 | 7.94 | 0.631 | 20 | – | –
Cc1ccc(C2CCCCN2S(=O)(=O)c2ccc3c(c2)NC(=O)CO3)cc1 (racemic) | 3.3 | – | – | – | – | 6310 | < 0.794 | 120
CNC(=O)C[C@H]1CCc2cc(F)ccc2N1C(=O)c1ccc2c(c1)NC(=O)CO2 | 1.4 | 6.3 | < 1.8 | 6310 | 316 | 2000 | – | –
CNC(=O)C[C@H]1COc2cc(C)ccc2N1C(=O)c1ccc2c(c1)NC(=O)CO2 | 1.6 | 14 | 2.8 | 316 | 3.98 | 100 | – | –
CNC(=O)C[C@H]1COc2cc(F)ccc2N1C(=O)c1ccc2c(c1)NC(=O)OC2 | 0.9 | – | < 1 | > 15800 | > 6310 | > 10000 | – | –
CNC(=O)C[C@H]1COc2cc(Cl)cc(C)c2N1C(=O)c1ccc2c(c1)NC(=O)CO2 | 1.2 | 7.8 | 2.5 | > 12600 | 398 | 2000 | – | –
NC(=O)C[C@H]1CNc2cc(Cl)ccc2N1C(=O)c1ccc2c(c1)NC(=O)CO2 | 1.5 | < 0.81 | < 1 | 316 | 7.94 | 126 | – | –
O=C1COc2ccc(C(=O)N3c4cc(CC5CCCCC5)c(F)cc4OC[C@@H]3CCO)cc2N1 | > 4.4 | – | 26 | 200 | 10 | 251 | – | –
CS(=O)(=O)C[C@H]1COc2cc(F)ccc2N1C(=O)c1ccc2c(c1)NC(=O)CO2 | 1.4 | 10 | 8 | 20 | 0.316 | 2.51 | – | –
NC(=O)C[C@H]1COc2cc(F)ccc2N1C(=O)c1ccc2c(c1)NC(=O)CO2 | 1.1 | 3 | < 1 | 631 | – | – | – | –
O=c1[nH]c2ccc(/C=C3\c4ccccc4COc4cc(F)ccc43)cc2[nH]1 | 4 | – | – | – | – | – | – | –
CC(C)Cc1cc2c(cc1F)OC[C@H](CS(N)(=O)=O)N2C(=O)c1ccc2c(c1)NC(=O)CO2 | 2.8 | – | 18 | 1.58 | < 0.316 | 0.794 | – | –
N=C(c1ccc2c(c1)NC(=O)CO2)[C@@H](Sc1nnc[nH]1)c1ccccc1 | 2.4 | – | – | – | 501 | – | – | –
CNC(=O)C[C@H]1COc2cc(Br)ccc2N1C(=O)c1ccc2c(c1)NC(=O)CO2 | 2.2 | 23 | 5 | 126 | – | – | – | –
